{
  "source": "patent US11492618B2",
  "about": "“Expression control using a regulatable intron” (ASKLEPIOS BIOPHARMACEUTICAL, INC., priority 2017, dated 2022)",
  "key": {"[1]": {"test_system": "UPR", "test": "Induction of UPR by candidate inducers, EGFP read-out from SYNP-ATF6-02", "assay_type": "cell-based, human", "conditions": "HEK293F with SYNP-ATF6-02; DTT 2 mM, palmitate 0.5 mM, MF-43 1 μM; 0-24 hrs", "procedure": "Experiments were performed to assess the ability of several candidate agents to induce the UPR. The ability of these candidate inducers to induce UPR was assessed using the techniques essentially as described above. The additional candidates tested were 0.5 mM palmitic acid, 1 uM MF-43 (2-methyl-5-(6-(4-(2-(trifluoromethyl)phenoxy)piperidin-1-yl)pyridazin-3-yl)-1,3,4-thiadiazole), which is an inhibitor of stearoyl-CoA desaturase, and a combination of both of these (for the same concentrations of each was used).\nIn these experiments transfections were done in 24-well plates as previously described. The SYNP-ATF6-02 plasmid (i.e. SYNP-ATF6-02 in pMA-RQ vector) was transfected into HEK293F cells and after 24 hrs GFP was measured. Induction of the UPR was then stimulated using the aforementioned inducers and samples were taken and measured at 0, 1, 3, 5 and 24 hrs after induction. GFP expression was measured as previously described. Results are the average of 3 individual experiments and the error bars represent the standard deviation.\nExperimental procedure in brief: • 40 ml of cells were grown in a 250 ml vented Erlenmeyer flask (Sigma-Aldrich CLS431144) at 37° C., 8% CO2 with agitation at 100 rpm. […]\nAAV production on induction of UPR: The ATF6 plasmid (i.e. SYNP-ATF6-02 in pMA-RQ vector) was transfected into HEK293 cells as previously described. 24 hrs later GFP was measured. […] EGFP fluorescence was then measured after 1, 3, 5 and 24 hrs. […]"}, "[2]": {"test_system": "HEK293-F cells", "test": "Luciferase expression from UPR-inducible promoters with different minimal promoters after 2 mM DTT", "assay_type": "cell-based, human", "excerpt": "The purpose of this experiment was to test the ATF6-containing UPR-responsive cis-regulatory element (also referred to herein as an enhancer) as used in the examples above with different minimal promoters and to further assess their inducibility and tightness of control. To this end, the ATF6-containing UPR-responsive cis-regulatory element was operably linked to the CMV-MP and MinTK (herpes thymidine kinase minimal promoter) minimal promoters The constructs were synthesised by GeneART by chemical synthesis, as above.\nAs described above, the enhancer sequence contains 6 repeats of the sequence TGACGTGCT (which contains the ATF6 consensus sequence, TGACGTG) spaced by 20 bp spacer sequences. The enhancer sequence was coupled to either MinTK (in construct ATF06-MP001) or CMV-MP (in construct ATF06-MP002).\nTransfection of HEK293-F cells was performed as previously described. DTT was added at a concentration of 2 mM. Luciferase activity was measured as previously described. The results are shown in FIG. 17—the DTT was added at time=0 h as shown on the X-axis (units are hours)."}, "[3]": {"test_system": "HEK293 cells", "test": "Cell death (trypan blue) after induction of intron-controlled caspase 9", "assay_type": "cell-based, human", "conditions": "HEK293 with SYNP-CASP9-INT, DTT 2 mM", "procedure": "Transfection was performed as previously described. DTT was added at 2 mM and forskolin was added at 10 μM. The latter was carried out to determine whether forskolin could induce the removal of the intron. Amongst other things, forskolin has potential gene therapy applications. Induction of intron removal was measured as function of cell death, with higher cell death an indicator of removal of the intron.\nExperiments were performed as described in the methods namely, HEK or CHO-s cells were transfected with the aforementioned construct and incubated for 24 h. After this time the activating compound DTT or Forskolin was added, % cell death was then measured at 3, 5 and 24 h post-induction.\nInduction of intron was measured as function of cell death, using the Countess II cell counter (Thermofisher). Cells were stained with trypan blue to ascertain cell viability. 10 μl of cell suspension was added to a Haemocytomer and analysed on the countess."}, "[4]": {"test_system": "CHO-S cells", "test": "EGFP fluorescence from regulatable-intron construct before and after UPR induction with 2 mM DTT", "assay_type": "cell-based, Chinese hamster", "procedure": "(§1) The standard protocol for transfection of these cells was modified for 24 well plates as follows: • 40 ml of cells were grown in a 250 ml vented Erlenmeyer flask (Sigma-Aldrich CLS431144) at 37° C., 8% CO2 with agitation at 100 rpm. Cells were seeded as described in the manufacturer's instructions. • 1 day before transfection cells were counted using a haemocytometer and split to 500,000 cells/ml. • On the day of transfection cells are seeded to 1 million cells/ml in 500 μl of appropriate medium in a 24 well plate. • 0.625 μg of DNA/well was then added to 10 μl of OptiMem medium (Thermofisher; 11058021) and incubated for 5 minutes at room temperature. • Concurrently 0.625 μl of Max reagent was made up to 10 μl by addition of OptiMem and incubated for 5 minutes at room temperature. • After this incubation both mixes were added to the same tube and incubated at room temperature for 25-30 minutes. • The DNA/Max reagent mix (20 μl/well) was then added directly to the cells and the cells incubated as described previously. • Cells were then measured for GFP fluorescence after 24 hrs. • Intron splicing from the GFP construct was measured via addition of 2 mM DTT and monitoring of GFP fluorescence after 1 hr. DTT is a strong reducing agent which induces ER stress by disrupting the formation of disulphide bonds within the ER. […]"}, "[5]": {"test_system": "HEK293F cells", "test": "EGFP fluorescence from regulatable-intron construct before and after UPR induction with 2 mM DTT", "assay_type": "cell-based, human", "procedure": "as §1"}, "[6]": {"test_system": "HEK293 cells", "test": "SEAP activity from intron-containing SEAP construct after DTT induction", "assay_type": "cell-based, human", "procedure": "(§2) Experiments were performed essentially as described in the above methods, namely, HEK or CHO-s cells were transfected with the aforementioned construct (pMA-RQ) and incubated for 24 hrs. After this time the activating compound DTT was added at 2 mM final concentration, SEAP activity was then measured at 3, 5 and 24 hrs post-induction.\n(§3) The protocol for transfection for 24 well plates was as described in Example 1. Thereafter: • Supernatant was measured for SEAP activity after 24 hrs. • Intron splicing from the SEAP construct was measured after addition of either 2 mM DTT by monitoring of SEAP activity after 3, 5 and 24 hrs. • SEAP activity was measured as per manufacturer's instructions, Roche, SEAP reporter gene assay kit, obtained from Sigma-Aldrich, Cat. No. 11 779 842 001."}, "[7]": {"test_system": "CHO cells", "test": "SEAP activity from intron-containing SEAP construct after DTT induction", "assay_type": "cell-based, Chinese hamster", "procedure": "as §2, §3"}},
  "data": [
    {"compound": "CCCCCCCCCCCCCCCC(=O)O", "note": "[palmitate, palmitic acid]", "values": [
      {"measurement": "induction of UPR indicated by expression of functional EGFP", "setting": "[1]", "result": "effectively induced the UPR"}
    ]},
    {"compound": "ATF06-MP001: ATF6 enhancer (6 repeats, 20 bp spacers) coupled to MinTK driving luciferase (SEQ ID NO: 59)", "values": [
      {"measurement": "inducibility of luciferase expression by DTT", "setting": "[2]; 2 mM DTT", "result": "good inducibility"},
      {"measurement": "luciferase expression after induction of the UPR versus CMV-IE promoter", "setting": "[2]; 2 mM DTT", "result": "significantly higher than provided by the constitutive CMV-IE promoter"},
      {"measurement": "luciferase expression prior to addition of DTT", "setting": "[2]; before 2 mM DTT", "result": "negligible expression"}
    ]},
    {"compound": "O[C@H](CS)[C@H](O)CS", "note": "(racemic) [DTT, Dithiothreitol]", "values": [
      {"measurement": "time after treatment at which % of dead cells is equal to the positive control", "setting": "[3]", "result": 5, "unit": "h"},
      {"measurement": "number of dead cells after 3 h", "setting": "[3]; 3 h", "result": "close to the control construct which contained no intron"},
      {"measurement": "induction of UPR indicated by expression of functional EGFP", "setting": "[1]", "result": "very potent inducer of the UPR"}
    ]},
    {"compound": "SYNP-XBP-01: CMV-MP controlling expression of EGFP with XBP1 intron (SEQ ID NO: 28), in plasmid pMA-RQ", "values": [
      {"measurement": "GFP fluorescence induced upon addition of 2 mM DTT", "setting": "[4]; 2 mM DTT", "result": "> 1000", "unit": "fold"},
      {"measurement": "background GFP fluorescence before induction", "setting": "[4]; no DTT", "result": "no background at all"},
      {"measurement": "GFP production induced upon inducing ER-Stress", "setting": "[5]; 2 mM DTT, 1 hr after treatment, 3 independent experiments", "result": "4-10 fold"},
      {"measurement": "resultant GFP activity higher than the positive control", "setting": "[5]; after 2 mM DTT, control CMV-MP-GFP", "result": "2.5-7 fold"},
      {"measurement": "background GFP fluorescence before induction", "setting": "[5]; no DTT, versus control", "result": "considerably lower than the control"}
    ]},
    {"compound": "SEAP-ATF6-001: SEAP expression construct with 6×ATF6 spaced by 20 bp, CMV-MP and regulatable intron (SEQ ID NO: 34)", "values": [
      {"measurement": "SEAP expression after 24 h higher than CMV-IE", "setting": "[6]; HEK293, 2 mM DTT, 24 h", "result": "~2", "unit": "fold"},
      {"measurement": "SEAP expression before induction", "setting": "[6]; HEK293, no DTT", "result": "no SEAP expression"},
      {"measurement": "SEAP expression after 24 h higher than CMV-IE", "setting": "[7]; 2 mM DTT, 24 h, CMV-IE shown in HEK293", "result": "~2", "unit": "fold"},
      {"measurement": "SEAP expression before induction", "setting": "[7]; no DTT", "result": "no SEAP expression"}
    ]},
    {"compound": "Cc1nnc(-c2ccc(N3CCC(Oc4ccccc4C(F)(F)F)CC3)nn2)s1", "note": "[MF-43, 2-methyl-5-(6-(4-(2-(trifluoromethyl)phenoxy)piperidin-1-yl)pyridazin-3-yl)-1,3,4-thiadiazole]", "values": [
      {"measurement": "induction of UPR indicated by expression of functional EGFP", "setting": "[1]", "result": "effectively induced the UPR"}
    ]}
  ]
}
